Reference: the supplement of paper PMC10331698
± gives the standard deviation of the averaged measurements.

Experiments:
Assay in all cases: level (log10 ratio to DMSO vehicle control); higher = higher biomarker level / cell amount than vehicle control
Conditions in all cases: in DMSO
[1] = compound: C=C(C)C(=O)OCCC(F)(F)C(F)(F)C(F)(F)C(F)(F)C(F)(C(F)(F)F)C(F)(F)F [(Perfluoro-5-methylhexyl)ethyl 2-methylprop-2-enoate]
Experimental: (§1)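 BioMAP Diversity Plus panel of 12 human primary cell co-culture systems (3C, 4H, LPS, SAg, BT, BF4T, BE3C, CASM3C, HDF3CGF, KF3CT, MyoF, Mphg). Compounds were added 1 h before stimulation and left for 24 h (MyoF 48 h; BT 72 h for soluble read-outs or 6 d for IgG). Biomarkers were read by ELISA, cytotoxicity by SRB, PBMC viability and proliferation by Alamar Blue. Each well value was divided by the mean of 8 DMSO control wells on the same plate and log10 transformed; duplicate blinded samples were tested at 4 concentrations.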

[2] = compound: C=CC(F)(F)C(F)(F)C(F)(F)C(F)(F)C(F)(F)C(F)(F)C(F)(F)C(F)(F)C=C [1,8-Divinylperfluorooctane]
Experimental: as §1

[3] = compound: FC(F)(F)C(F)(F)C(F)(F)C(F)(F)C(F)(F)CCI [1-Iodo-1H,1H,2H,2H-perfluoroheptane]
Experimental: as §1

[4] = compound: FC(F)C(F)(F)COCC1CO1 [((2,2,3,3-Tetrafluoropropoxy)methyl)oxirane]
Experimental: as §1

Pentafluoropropionamide = compound: NC(=O)C(F)(F)C(F)(F)F [Pentafluoropropionamide]
Experimental: as §1

Perfluoropropanoic acid = compound: O=C(O)C(F)(F)C(F)(F)F [Perfluoropropanoic acid]
Experimental: as §1

Test System	level (log10) ([1]; 6700 nM)	level (log10) ([1]; 20000 nM)	level (log10) ([2]; 6700 nM)	level (log10) ([2]; 20000 nM)	level (log10) ([3]; 6700 nM)	level (log10) ([3]; 20000 nM)	level (log10) ([3]; 60000 nM)	level (log10) ([4]; 6700 nM)	level (log10) ([4]; 20000 nM)	level (log10) ([4]; 60000 nM)	level (log10) (Pentafluoropropionamide; 6700 nM)	level (log10) (Pentafluoropropionamide; 20000 nM)	level (log10) (Pentafluoropropionamide; 60000 nM)	level (log10) (Perfluoropropanoic acid; 6700 nM)	level (log10) (Perfluoropropanoic acid; 20000 nM)	level (log10) (Perfluoropropanoic acid; 60000 nM)
SAg:CCL2/MCP-1	-0.014 ± 0.018	0.0065 ± 0.033	-0.001 ± 0.0028	0.004 ± 0.0014	-0.005 ± 0.0099	-0.0175 ± 0.0035	-0.006 ± 0.038	-0.0305 ± 0.046	-0.0185 ± 0.016	-0.014 ± 0.011	-0.012 ± 0.0014	-0.018 ± 0.0099	-0.0095 ± 0.016	-0.0055 ± 0.036	0.012 ± 0.016	0.0145 ± 0.042
BE3C:IL-1alpha	-0.017 ± 0.0057	-0.009 ± 0.0014	0.001 ± 0.02	0.026 ± 0.0057	-0.0085 ± 0.016	-0.005 ± 0.013	-0.012 ± 0.0085	0.0015 ± 0.029	-0.0015 ± 0.0078	-0.008 ± 0.014	0.0095 ± 0.022	0.003 ± 0.014	0.0295 ± 0.0035	-0.019 ± 0.016	-0.021 ± 0.04	-0.0115 ± 0.023
LPS:IL-1alpha	-0.0515 ± 0.096	-0.0355 ± 0.023	0.0095 ± 0.019	0.0295 ± 0.012	0.023 ± 0.033	0.0055 ± 0.022	0.0205 ± 0.0064	-0.046 ± 0.0042	-0.026 ± 0.021	0.022 ± 0.024	0.0225 ± 0.036	-0.0175 ± 0.019	0.0255 ± 0.047	-0.047 ± 0.033	-0.0405 ± 0.037	-0.0165 ± 0.032
BT:sTNF-alpha	0.0485 ± 0.1	0.0945 ± 0.03	0.016 ± 0.13	0.102 ± 0.081	-0.02 ± 0.038	0.063 ± 0.055	-0.114 ± 0.052	0.0865 ± 0.025	0.0615 ± 0.023	-0.0195 ± 0.0021	0.0135 ± 0.0078	0.0225 ± 0.081	-0.0025 ± 0.0092	0.0405 ± 0.06	0.058 ± 0.096	-0.0255 ± 0.11
BT:PBMC Cytotoxicity	0.004 ± 0.0057	0.007 ± 0.021	0.0285 ± 0.0035	0.019 ± 0.0042	-0.012 ± 0.03	-0.0265 ± 0.028	-0.024 ± 0.011	0.0145 ± 0.0021	-0.011 ± 0.0085	-0.0135 ± 0.005	0.0065 ± 0.042	0.013 ± 0.034	-0.02 ± 0.0014	-0.0215 ± 0.056	-0.013 ± 0.027	-0.005 ± 0.0085
4H:CD106/VCAM-1	-0.012 ± 0.016	-0.0005 ± 0.005	-0.012 ± 0.021	0.0035 ± 0.00071	0.006 ± 0.051	0 ± 0.028	-0.0205 ± 0.026	0.01 ± 0.013	-0.017 ± 0.0042	-0.023 ± 0.017	-0.02	-0.011 ± 0.03	0.0015 ± 0.0092	-0.0085 ± 0.011	-0.0075 ± 0.00071	0 ± 0.014
LPS:sTNF-alpha	0.0265 ± 0.04	0.0345 ± 0.063	0.055 ± 0.016	0.035 ± 0.035	0.003 ± 0.011	-0.0065 ± 0.04	-0.0135 ± 0.046	0.0135 ± 0.0021	0.015 ± 0.013	0.0175 ± 0.0021	0.05 ± 0.0014	0.0015 ± 0.023	0.0095 ± 0.04	-0.006 ± 0.013	0.0065 ± 0.00071	0.0175 ± 0.0021
BT:sIL-17A	-0.19 ± 0.31	-0.015 ± 0.15	-0.0055 ± 0.026	0.0625 ± 0.079	-0.269 ± 0.12	0.037 ± 0.15	-0.22 ± 0.067	0.0715 ± 0.032	-0.008 ± 0.064	-0.115 ± 0.03	0.0075 ± 0.1	-0.031 ± 0.051	0.0105 ± 0.015	0.0325 ± 0.0064	-0.051 ± 0.12	-0.065 ± 0.15
3C:SRB	-0.008 ± 0.0042	-0.0175 ± 0.0078	0.0135 ± 0.0021	0.027 ± 0.0042	0.006 ± 0.013	-0.019 ± 0.0042	-0.0175 ± 0.013	-0.0085 ± 0.0078	-0.008 ± 0.0028	-0.004 ± 0.0099	0.008 ± 0.031	-0.001 ± 0.011	-0.025 ± 0.011	-0.0115 ± 0.0035	-0.009 ± 0.0028	-0.0065 ± 0.0021
BF4T:MMP-1	-0.0205 ± 0.0021	-0.0095 ± 0.0021	-0.0045 ± 0.005	0.0135 ± 0.035	-0.001 ± 0.0057	-0.0015 ± 0.00071	0.008 ± 0.013	0.016 ± 0.0085	0.007 ± 0.02	0.03 ± 0.021	-0.005 ± 0.0099	-0.0105 ± 0.0078	0.012 ± 0.016	0.003 ± 0.0071	0.0035 ± 0.029	0.009 ± 0.033
BF4T:MMP-3	-0.0975 ± 0.022	-0.057 ± 0.041	0.021 ± 0.016	0.0005 ± 0.005	-0.006 ± 0.034	-0.0015 ± 0.0078	0.0545 ± 0.021	0.0015 ± 0.00071	-0.0115 ± 0.026	0.0205 ± 0.059	-0.024 ± 0.011	-0.007	-0.003 ± 0.033	-0.018 ± 0.0028	0.0015 ± 0.026	0.0085 ± 0.028
3C:CD87/uPAR	-0.007 ± 0.0028	-0.019 ± 0.028	-0.0065 ± 0.022	0.0105 ± 0.025	-0.0105 ± 0.0092	-0.0065 ± 0.0092	0.0045 ± 0.018	0.0035 ± 0.012	-0.002 ± 0.0042	0.009 ± 0.0042	-0.052 ± 0.016	-0.042 ± 0.038	-0.049 ± 0.014	-0.008 ± 0.011	-0.005 ± 0.011	0.0125 ± 0.013
LPS:sPGE2	-0.038 ± 0.05	-0.016 ± 0.064	-0.005 ± 0.034	-0.035 ± 0.075	-0.01 ± 0.042	-0.0395 ± 0.023	-0.018 ± 0.0085	-0.0355 ± 0.032	-0.022 ± 0.011	-0.037 ± 0.014	0.032 ± 0.0085	-0.008 ± 0.0071	-0.018 ± 0.014	-0.017 ± 0.05	-0.018 ± 0.0071	-0.011 ± 0.04
3C:CXCL8/IL-8	0.0105 ± 0.03	0.054 ± 0.086	-0.023 ± 0.018	0.011 ± 0.034	0.011 ± 0.0085	0.0065 ± 0.016	0.051 ± 0.017	-0.0255 ± 0.005	-0.0275 ± 0.0021	0.003 ± 0.042	-0.026 ± 0.013	-0.028 ± 0.0099	0.002 ± 0.044	0.007 ± 0.03	-0.001 ± 0.02	0.0255 ± 0.047
BF4T:Keratin 8/18	-0.024	-0.0115 ± 0.0078	0.023 ± 0.033	-0.003 ± 0.033	0.0135 ± 0.022	-0.0085 ± 0.005	-0.015 ± 0.0028	0.0005 ± 0.005	-0.008 ± 0.014	-0.0025 ± 0.042	0.0075 ± 0.043	0.0395 ± 0.05	0.0075 ± 0.032	-0.032 ± 0.0028	-0.004 ± 0.0014	0.027 ± 0.016
